Drawing on patent US8753652B2, “Pharmaceutical composition including a DHA ester to be administered parenterally” (Pierre Fabre Medicament, priority 2009, dated 2014), this text covers solubility and logP for 1 molecule.

Data set [1] in a line: Solubility at equilibrium in water. In kind it is physicochemical. The note with it: thermodynamic from solid. The protocol:
(§1) It is a very lipophilic compound (Log P approximately 7), wherein the solubility at equilibrium in water is <1 μg/ml. It is thus particularly difficult to formulate for parenteral administration.

A short description of data set [2]: Lipophilicity (Log P) of the nicotinic ester of DHA. Type of data set: physicochemical. As to the method:
as §1

Structures are written as SMILES.

The solubility is the concentration that dissolves in the medium under given conditions. Read a high solubility as a readily soluble substance. A word on the logP: it is a log measure of how a compound divides between an organic and an aqueous phase. Higher therefore signals higher lipophilicity. On to `CC/C=C\C/C=C\C/C=C\C/C=C\C/C=C\C/C=C\CCC(=O)OCc1cccnc1` [nicotinic ester of DHA, pyridin-3-ylmethyl-cis-4,7,10,13,16,19-docosahexaenoic acid], for which the solubility in data set [1] is less than 1 µg/mL. In data set [2], this molecule had a logP of approximately 7.
